PubChem BioAssay AID179 (DTP/NCI, 2004)
pEC50, pIC50: −log10 of the molar value. Several values for one entry are separate records, joined by “and”; a condition that tells them apart may be missing. Identical values can stand only once. Activity calls are given as the source filed them.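 Rule for the calls: active = compounds giving half or more protection of infected cells from virus-caused growth loss, again on retest; inactive = the rest.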

Test system: CEM cells HIV-1 protection, formazan growth assay
Assay: NCI AIDS Antiviral Assay
Conditions: for pIC50: measured here: growth of uninfected CEM cells
How it was run: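 Steps: treat uninfected and HIV-1-infected human CEM cells at five drug levels; quantify growth by soluble formazan; retest any compound reaching 50% protection; classify actives from the retest.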

Structure (SMILES)	pEC50	pIC50	outcome
CN1C(c2ccccc2)(c2ccccc2)c2ccccc2S1(=O)=O	< 3.70	4.30	
COc1ccc(C[C@@H](CO)NC2=C(C#N)CCC2)cc1	< 3.70	4.19	
COc1cc2c(cc1OC)C1=NN(c3ccccc3)C(=O)C1CC2 (configuration not stated)	< 5.07	< 5.07	
Cc1ccc(S(=O)(=O)NC(=O)Nc2sc(=S)c3c(c2C#N)CCCC3)cc1	< 3.51	4.23	
N#CC12C(=O)N3C(=NC(c4ccco4)NC3c3ccco3)C1(C#N)C(c1ccco1)NC1=C2CCCC1 (configuration not stated)	< 3.70	< 3.70	
O=C(/C=C\c1ccc(-c2ccccc2)cc1)c1cccs1	< 3.70	4.95	
Cc1nn(C(=O)Cc2ccccc2)c2c1C(c1ccc(Cl)cc1)SC(N)=N2 (configuration not stated)	3.96	3.80	
O=c1oc2c(O)c(O)cc3c(=O)oc4c(O)c(O)cc1c4c23	< 4.18	4.37	
COC(=O)C1CC23CCCN4CCC5(c6ccccc6N(C=O)C15CC2)C43 (configuration not stated)	< 4.15	< 4.15	
CCOC(=O)c1ccc(C(=O)C(C(C)=O)C(=O)OC(C)(C)C)n1C (configuration not stated)	4.36	4.13	
CC(C)NCCCC(C)Nc1ccnc2ccc3nn(C)nc3c12 (configuration not stated)	< 3.62	4.27	
COC(=O)C1=Nc2c(C)nn(-c3ccccc3)c2N=C(c2ccccc2)C1	< 3.70	< 3.70	
[B]C(=O)NC(CC(C)C)C(=O)NCC(=O)NC1c2ccsc2C(=O)C1O (configuration not stated) (tested in a mixture with another compound)	< 3.70	< 3.70	
COc1cc(C2c3cc4c(c(O)c3C[C@H]3COC(=O)[C@@H]23)OCO4)cc(OC)c1OC (some centres not stated)	< 3.70	6.33	
CCCCCC#CC1OC12CCCCC2 (configuration not stated)	< 3.90	< 3.90	
COC1C(=O)CCC2(CO2)C1(O)C1(C)OC1CCC(C)C (configuration not stated)	< 3.70	5.36	
CC(/C=N/N=C(N)N)=N\N=C(N)N	< 3.01	5.56 and 6.29	
CCCCCCCCCCCCCCCCOP(=O)([O-])OCC[N+](C)(C)C	< 3.51	5.61	
COc1cc2c(c(O)c1OC)C(O)C1CCC(=O)N1C2c1cccc2ccccc12 (configuration not stated)	< 3.70	4.28	
N#CC(C(=O)CCC(=O)Nc1cccc(C(F)(F)F)c1)c1ccc(Cl)cc1 (configuration not stated)			inactive
COc1ccc(S(=O)(=O)O)cc1-n1nc(C(=O)Nc2ccccc2)n[n+]1-c1cc(S(=O)(=O)[O-])ccc1OC	< 3.70	< 3.70	
O=CC(O)C(O)C(O)C(O)C(=O)NCCCCCCCCCCCCNC(=O)C(O)C(O)C(O)C(O)C=O (configuration not stated)	< 3.70	< 3.70	

Structure (SMILES)	pEC50	pIC50	outcome
C[C@@]12CCC[C@H]1[C@@H]1CC=C3C[C@@H](S)CC[C@]3(C)[C@H]1CC2	< 3.70	4.18	
O=C1N[C@H]2c3c(Cl)sc(Cl)c3C(=O)[C@H]2O1	< 4.70	6.02	
N#CC12CC(C=O)=C(N)C1(C#N)CC(C=O)=C2N (configuration not stated)	< 3.70	4.83	
Nc1ncnc2c1ncn2C1SC(CO)C(O)C1O (configuration not stated)	4.34	3.83	
CC1(C)OC(=O)C(Cc2ccccc2)(Cc2ccccc2)C(=O)O1			inactive
COc1cc(OC)cc(OCc2nc3cc(C(F)(F)F)ccc3nc2-c2ccccc2)c1	< 3.70	4.28	
CCOc1ccc(OCC(=O)O)c2c1CCCC2=O			inactive
NCCCCCCn1c(-c2ccc(Br)cc2)csc1=Nc1ccccc1	< 3.70	5.45	
O=C1NC(=O)C(Cc2ccccc2)(Cc2ccccc2)S1	< 4.76	< 4.76	
c1csc([As](O[As](c2cccs2)c2cccs2)c2cccs2)c1	< 6.70	6.99	
CSC1=C(C#N)C(=S)N=C(N)C1C(=O)Nc1ccc(C)cc1 (configuration not stated)	< 3.70	< 4.00	
Cc1cn(COCCCO[Si](C)(C)C(C)(C)C)c(=O)[nH]c1=O	3.95	3.76	
CC1=CC(C)=Nc2ccccc2N1	< 3.70	< 3.70 and 3.71	
O=C(O)CSC(NC(=O)C(C(F)(F)F)C(F)(F)F)(C(F)(F)F)C(F)(F)F	< 3.70	< 3.70	
O=S(=O)(O)c1cc(N=Nc2ccc(/C=C/c3ccc(N=Nc4cc(S(=O)(=O)O)c5cccnc5c4O)cc3S(=O)(=O)O)c(S(=O)(=O)O)c2)ccc1/C=C/c1ccc(N=Nc2cc(S(=O)(=O)O)c3cccnc3c2O)cc1S(=O)(=O)O	6.08	5.71	
CC1=C/C(=N\O)C(C(O)(C(F)(F)F)C(F)(F)F)C(C)(C)C1 (configuration not stated)	< 3.70	3.87	
Cc1oc2c(C)c3oc(=O)cc(C)c3cc2c1CN	< 4.30	5.15	
COC(=O)C(CC(=O)c1c[nH]c2ccccc12)c1c[nH]c2ccccc12 (configuration not stated)			inactive
CC(=O)[O-].CC(=O)[O-].[Mn+2].c1ccc(/C(=N\Nc2ccccn2)c2ccccn2)cc1			inactive
Nn1c(N=Nc2c(O)[nH]c3c(Cl)cc(Cl)cc23)n[nH]c1=S	< 4.85	< 4.85	
O=S(=O)(c1ccccc1)C1(C2(S(=O)(=O)c3ccccc3)CCN=N2)CCN=N1 (configuration not stated)			inactive
O=C1OC(=O)C2CC3C(CC12)C1(Cl)C(Cl)=C(Cl)C3(Cl)C1(Cl)Cl (configuration not stated)	< 3.70	5.18	
